# Measured values: PubChem BioAssay (NCI)
#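 A five-concentration, 48-hour dose response in 96-well plates underlies each endpoint, interpolated linearly between surrounding concentrations. TGI: concentration producing complete growth inhibition.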
# Key:
# Assay in all cases: NCI tumour cell line growth inhibition, 48 h
# LOX IMVI melanoma = test system: LOX IMVI melanoma
# ACHN renal = test system: ACHN renal
# HCT-116 colon = test system: HCT-116 colon
# SK-MEL-28 melanoma = test system: SK-MEL-28 melanoma
# NCI/ADR-RES ovarian = test system: NCI/ADR-RES ovarian
# HCT-15 colon = test system: HCT-15 colon
# 786-0 renal = test system: 786-0 renal
# KM12 colon = test system: KM12 colon
# PC-3 prostate = test system: PC-3 prostate
# T-47D breast = test system: T-47D breast
SMILES,TGI (LOX IMVI melanoma),TGI (ACHN renal),TGI (HCT-116 colon),TGI (SK-MEL-28 melanoma),TGI (NCI/ADR-RES ovarian),TGI (HCT-15 colon),TGI (786-0 renal),TGI (KM12 colon),TGI (PC-3 prostate),TGI (T-47D breast)
COc1cc(/C=N/N=C(\N)NO)cc(OC)c1OC,> 100 µM,72 µM,> 100 µM,> 100 µM,36.3 µM,> 100 µM,39.2 µM,> 100 µM,> 100 µM,> 100 µM
CC(C)(C)C(=O)Oc1ccc(/C=C/C(=O)c2ccc(OC(=O)C(C)(C)C)cc2)cc1,> 100 µM,> 100 µM,71.4 µM,> 100 µM,> 100 µM,> 100 µM,> 100 µM,38.5 µM,> 100 µM,> 100 µM
CCOC(=O)C(=CNc1ccc(N(C2=NCC(C)S2)c2ccc(F)c(Cl)c2)cc1)C(=O)OCC (stereo not given),34.5 µM,39.8 µM,31.4 µM,42.5 µM,33.7 µM,36.1 µM,33.2 µM,33.6 µM,50.9 µM,49.5 µM
CC(C)=NOC(=O)CNC(=O)C(Cc1ccccc1)NC(=O)C(C)NC(=O)OC(C)(C)C (stereo not given),> 100 µM,> 100 µM,> 100 µM,> 100 µM,> 100 µM,> 100 µM,> 100 µM,> 100 µM,> 100 µM,> 100 µM
Oc1[nH]c2ccccc2c1C1=Nc2ccccc2/C1=N\OCCOC1OCC(O)C(O)C1O (stereo not given),> 100 µM,> 100 µM,> 100 µM,> 100 µM,> 100 µM,> 100 µM,> 100 µM,> 100 µM,> 100 µM,> 100 µM
CC1(C)CO[P@@](=S)(c2ccccn2)O[C@@H]1c1ccccc1,> 100 µM,> 100 µM,> 100 µM,> 100 µM,> 100 µM,> 100 µM,> 100 µM,> 100 µM,> 100 µM,> 100 µM
O=c1[nH]nc(-c2ccccc2)n1/N=C/c1cccc([N+](=O)[O-])c1,> 100 µM,> 100 µM,> 100 µM,> 100 µM,> 100 µM,> 100 µM,> 100 µM,> 100 µM,> 100 µM,> 100 µM
CC(=O)O[C@H]1CC[C@@]2(C)C(=CC[C@@H]3[C@@H]2CC[C@]2(C)c4c(n[nH]c4C)C[C@@H]32)C1,> 100 µM,43.5 µM,44.5 µM,45.2 µM,85.1 µM,34.2 µM,35.1 µM,37.4 µM,58.2 µM,25 µM
C[C@@H](C[C@H]1OC(C)(C)O[C@@H]1C(C)(C)O)[C@H]1CC=C2[C@]3(C)[C@H](O)C[C@H]4C(C)(C)[C@H](O)CC[C@]4(C)[C@H]3CC[C@]21C,17.3 µM,15.8 µM,16 µM,18.6 µM,21.9 µM,14.9 µM,18.5 µM,16 µM,14.6 µM,43.2 µM
Nc1[nH]c(=O)nc2snnc12,65.2 µM,> 100 µM,> 100 µM,96.9 µM,> 100 µM,> 100 µM,> 100 µM,> 100 µM,> 100 µM,> 100 µM
COc1ccc(-c2c(-c3ccccc3)c(C)c3ccccn23)cc1,> 100 µM,> 100 µM,> 100 µM,> 100 µM,> 100 µM,> 100 µM,> 100 µM,> 100 µM,> 100 µM,> 100 µM
O=C1NC(Nc2ccccc2)=N/C1=C\c1c(Cl)cccc1Cl,> 100 µM,> 100 µM,> 100 µM,> 100 µM,> 100 µM,> 100 µM,29.6 µM,> 100 µM,39.6 µM,> 100 µM
Cc1cccc2[nH]c3c(c(O)cc4[nH]c5cccc(C)c5c(=O)c43)c(=O)c12,> 10 µM,> 10 µM,> 10 µM,> 10 µM,> 10 µM,> 10 µM,8.03 µM,> 10 µM,> 10 µM,> 10 µM
O=C1C[C@@]23CCC4(CC2CCC[C@H]3O1)OCCO4 (stereo not given in full),> 100 µM,> 100 µM,> 100 µM,> 100 µM,> 100 µM,> 100 µM,> 100 µM,> 100 µM,> 100 µM,> 100 µM
O=[N+]([O-])c1ccc(C2ON=C(c3ccccc3)N2C23CC4CC(CC(C4)C2)C3)cc1 (stereo not given),> 10 µM,> 10 µM,> 10 µM,> 10 µM,> 10 µM,> 10 µM,> 10 µM,> 10 µM,> 10 µM,> 10 µM
COc1c2c(nc3ccccc13)-c1cc(C(CC(=O)OC(C)(C)C)C(=O)OC(C)C)c(CO)c(=O)n1C2 (stereo not given),> 100 µM,> 100 µM,> 100 µM,> 100 µM,> 100 µM,> 100 µM,> 100 µM,> 100 µM,> 100 µM,> 100 µM
O=c1nc2ccc([N+](=O)[O-])cc2[n+]([O-])[nH]1,> 100 µM,> 100 µM,> 100 µM,> 100 µM,> 100 µM,> 100 µM,> 100 µM,> 100 µM,> 100 µM,> 100 µM
C/C(=N\NC(=O)c1ccc(Cl)cc1)c1nc2ncccc2[nH]1,57.8 µM,44.7 µM,> 100 µM,> 100 µM,50.1 µM,> 100 µM,55.3 µM,> 100 µM,> 100 µM,> 100 µM
CCOC(=O)c1sc2c(c1OC(=O)c1cc(OC)c(OC)c(OC)c1)c(=O)n(-c1ccccc1)c(=S)n2-c1ccccc1,> 100 µM,> 100 µM,> 100 µM,> 100 µM,> 100 µM,> 100 µM,> 100 µM,> 100 µM,> 100 µM,> 100 µM
COc1cc(C2c3cc4c(cc3OC(NNS(=O)(=O)c3ccc(C)cc3)C2C)OCO4)cc(OC)c1OC (stereo not given),> 100 µM,> 52 µM,12.1 µM,> 91.2 µM,> 100 µM,> 22.8 µM,31.5 µM,32.3 µM,> 72.5 µM,> 100 µM
